Consider 3 compounds from ChEMBL document CHEMBL3046063, “Synthesis and antimicrobial activity of 5-chloroindoline-2,3-dione derivatives” (2012).

What all share (format): functional
The test system of one assay is Fusarium solani. In words: Antimicrobial activity against Fusarium solani ATCC 38136 after 24 hr by broth dilution method. To be noted: ATCC 38136, 24 h. (Dilution methods test growth across graded concentrations, often in twofold steps.)
A further assay deals with Aspergillus flavus. Briefly: Antimicrobial activity against Aspergillus flavus ATCC 15517 after 24 hr by broth dilution method. To be noted: ATCC 15517, 24 h.
Another assay relates to Alternaria alternata. In words: Antimicrobial activity against Alternaria alternata ATCC 66868 after 24 hr by broth dilution method. To be noted: ATCC 66868, 24 h.
A further assay relates to Aspergillus fumigatus. In words: Antimicrobial activity against Aspergillus fumigatus after 24 hr by broth dilution method.
Assay [1] relates to Staphylococcus epidermidis. Briefly: Antimicrobial activity against Staphylococcus epidermidis ATCC 12228 after 24 hr by broth dilution method. To be noted: ATCC 12228, 24 h.
Another assay relates to Klebsiella pneumoniae. In words: Antimicrobial activity against Klebsiella pneumoniae ATCC 13883 after 24 hr by broth dilution method. Particulars: ATCC 13883, 24 h.
In another assay the test system is Bacillus pumilus. Briefly: Antimicrobial activity against Bacillus pumilus ATCC 14884 after 24 hr by broth dilution method. Particulars: ATCC 14884, 24 h.
For another assay, the system named is Escherichia coli. In words: Antimicrobial activity against Escherichia coli ATCC 25922 after 24 hr by broth dilution method. Particulars: ATCC 25922, 24 h.
Another assay deals with Trichoderma viride. In words: Antimicrobial activity against Hypocrea rufa ATCC 52440 after 24 hr by broth dilution method. Particulars: ATCC 52440, 24 h.
The test system of another assay is Proteus mirabilis. Briefly: Antimicrobial activity against Proteus mirabilis ATCC 49565 after 24 hr by broth dilution method. To be noted: ATCC 49565, 24 h.
The next assay relates to Aspergillus niger. In words: Antimicrobial activity against Aspergillus niger ATCC 9142 after 24 hr by broth dilution method. To be noted: ATCC 9142, 24 h.
In the next assay the test system is Candida albicans. Briefly: Antimicrobial activity against Candida albicans ATCC 10231 after 24 hr by broth dilution method. Particulars: ATCC 10231, 24 h.
Another assay relates to Micrococcus luteus. Briefly: Antimicrobial activity against Micrococcus luteus ATCC 4698 after 24 hr by broth dilution method. Particulars: ATCC 4698, 24 h.
The test system of the next assay is Trichophyton longifusum. In words: Antimicrobial activity against Trichophyton longifusum ATCC 22397 after 24 hr by broth dilution method. Particulars: ATCC 22397, 24 h.
The next assay relates to Bacillus cereus. In words: Antimicrobial activity against Bacillus cereus ATCC 11778 after 24 hr by broth dilution method. Particulars: ATCC 11778, 24 h.
The next assay concerns Pseudomonas aeruginosa. In words: Antimicrobial activity against Pseudomonas aeruginosa ATCC 10145 after 24 hr by broth dilution method. Particulars: ATCC 10145, 24 h.
Another assay concerns Bacillus spizizenii. In words: Antimicrobial activity against Bacillus subtilis subsp. spizizenii ATCC 6633 after 24 hr by broth dilution method. Particulars: ATCC 6633, 24 h.
The next assay has as its system Microsporum canis. Briefly: Antimicrobial activity against Arthroderma otae ATCC 11622 after 24 hr by broth dilution method. Particulars: ATCC 11622, 24 h.
The test system of the next assay is Proteus vulgaris. Briefly: Antimicrobial activity against Proteus vulgaris ATCC 13315 after 24 hr by broth dilution method. Particulars: ATCC 13315, 24 h.
Another assay has as its system Salmonella typhi. Briefly: Antimicrobial activity against Salmonella enterica subsp. enterica serovar Typhi ATCC 19430 after 24 hr by broth dilution method. Particulars: ATCC 19430, 24 h.
In the next assay the test system is Rhizoctonia solani. Briefly: Antimicrobial activity against Rhizoctonia solani ATCC 76131 after 24 hr by broth dilution method. Particulars: ATCC 76131, 24 h.
In a further assay the test system is Staphylococcus aureus. Briefly: Antimicrobial activity against Staphylococcus aureus ATCC 25923 after 24 hr by broth dilution method. Particulars: ATCC 25923, 24 h.
Another assay concerns Staphylococcus hominis. Briefly: Antimicrobial activity against Staphylococcus hominis ATCC 27844 after 24 hr by broth dilution method. To be noted: ATCC 27844, 24 h.
The subject of a further assay is Aspergillus awamori. In words: Antimicrobial activity against Aspergillus awamori ATCC 22342 after 24 hr by broth dilution method. Particulars: ATCC 22342, 24 h.

In brackets after ≈: the same amount, converted by molar mass.

For orientation: MIC means the least concentration at which growth counts as inhibited. A low value points to greater potency.

Regarding `O=C1Nc2ccc(Cl)cc2/C1=N/N1C(=O)C(Cl)C1c1ccc(O)cc1` (configuration not stated), the minimal inhibitory concentration (MIC) against Fusarium solani turned out to be 9.37 µg/mL (≈ 24.9 µM); in the assay with Aspergillus flavus, 4.68 µg/mL (≈ 12.4 µM); with Alternaria alternata, 4.68 µg/mL (≈ 12.4 µM); with Aspergillus fumigatus it was 4.68 µg/mL (≈ 12.4 µM); in assay [1], 9.37 µg/mL (≈ 24.9 µM); in the assay with Klebsiella pneumoniae it was 18.8 µg/mL (≈ 49.8 µM). The MIC worked out at 9.37 µg/mL (≈ 24.9 µM) in the assay with Bacillus pumilus; 9.37 µg/mL (≈ 24.9 µM) against Escherichia coli; 4.68 µg/mL (≈ 12.4 µM) in the assay on Trichoderma viride; 9.37 µg/mL (≈ 24.9 µM) against Proteus mirabilis; 4.68 µg/mL (≈ 12.4 µM) against Aspergillus niger; 4.68 µg/mL (≈ 12.4 µM) against Candida albicans. Moreover, the minimal inhibitory concentration (MIC) against Micrococcus luteus amounted to 18.8 µg/mL (≈ 49.8 µM); in the assay with Trichophyton longifusum, 4.68 µg/mL (≈ 12.4 µM); in the assay on Bacillus cereus it was 9.37 µg/mL (≈ 24.9 µM); against Pseudomonas aeruginosa it was 9.37 µg/mL (≈ 24.9 µM); against Bacillus spizizenii, 9.37 µg/mL (≈ 24.9 µM); with Microsporum canis it was 4.68 µg/mL (≈ 12.4 µM). The minimum inhibitory concentration (MIC) against Proteus vulgaris came out at 9.37 µg/mL (≈ 24.9 µM); in the assay on Salmonella typhi, 9.37 µg/mL (≈ 24.9 µM); against Rhizoctonia solani, 4.68 µg/mL (≈ 12.4 µM); with Staphylococcus aureus it was 18.8 µg/mL (≈ 49.8 µM); against Staphylococcus hominis it was 18.8 µg/mL (≈ 49.8 µM); with Aspergillus awamori, 4.68 µg/mL (≈ 12.4 µM).
As to `O=C1Nc2ccc(Cl)cc2/C1=N/N1C(=O)C(Cl)C1c1ccccc1` (configuration not stated), the MIC in the assay with Fusarium solani is 18.8 µg/mL (≈ 52.1 µM); in the assay on Aspergillus flavus, 18.8 µg/mL (≈ 52.1 µM); against Alternaria alternata, 18.8 µg/mL (≈ 52.1 µM); against Aspergillus fumigatus it was 37.5 µg/mL (≈ 104 µM); in assay [1], 37.5 µg/mL (≈ 104 µM); against Klebsiella pneumoniae, 37.5 µg/mL (≈ 104 µM). Moreover, the MIC in the assay on Bacillus pumilus is 37.5 µg/mL (≈ 104 µM); in the assay with Escherichia coli, 37.5 µg/mL (≈ 104 µM); in the assay on Trichoderma viride, 18.8 µg/mL (≈ 52.1 µM); against Proteus mirabilis it was 37.5 µg/mL (≈ 104 µM); with Aspergillus niger, 18.8 µg/mL (≈ 52.1 µM); against Candida albicans it was 37.5 µg/mL (≈ 104 µM). In addition, the MIC with Micrococcus luteus, in the assay with Trichophyton longifusum, against Bacillus cereus, in the assay on Pseudomonas aeruginosa, with Bacillus spizizenii and in the assay on Microsporum canis was 37.5 µg/mL (≈ 104 µM) throughout. The MIC in the assay with Proteus vulgaris was determined as 37.5 µg/mL (≈ 104 µM); with Salmonella typhi, 75 µg/mL (≈ 208 µM); in the assay with Rhizoctonia solani it was 18.8 µg/mL (≈ 52.1 µM); in the assay on Staphylococcus aureus, 75 µg/mL (≈ 208 µM); with Staphylococcus hominis, 75 µg/mL (≈ 208 µM); in the assay with Aspergillus awamori, 37.5 µg/mL (≈ 104 µM).
On to `O=C1Nc2ccc(Cl)cc2/C1=N/N1C(=O)CSC1c1ccc(F)cc1` (configuration not stated), for which the MIC was found to be 4.68 µg/mL (≈ 12.5 µM) against Fusarium solani; 9.37 µg/mL (≈ 24.9 µM) against Aspergillus flavus; 9.37 µg/mL (≈ 24.9 µM) in the assay with Alternaria alternata; 4.68 µg/mL (≈ 12.5 µM) in the assay on Aspergillus fumigatus; 9.37 µg/mL (≈ 24.9 µM) in assay [1]; 18.8 µg/mL (≈ 49.9 µM) against Klebsiella pneumoniae. Further, the MIC in the assay on Bacillus pumilus amounted to 9.37 µg/mL (≈ 24.9 µM); with Escherichia coli, 18.8 µg/mL (≈ 49.9 µM); with Trichoderma viride, 4.68 µg/mL (≈ 12.5 µM); with Proteus mirabilis, 18.8 µg/mL (≈ 49.9 µM); in the assay on Aspergillus niger it was 9.37 µg/mL (≈ 24.9 µM); with Candida albicans, 9.37 µg/mL (≈ 24.9 µM). Moreover, the minimal inhibitory concentration (MIC) turned out to be 18.8 µg/mL (≈ 49.9 µM) in the assay with Micrococcus luteus; 4.68 µg/mL (≈ 12.5 µM) in the assay with Trichophyton longifusum; 9.37 µg/mL (≈ 24.9 µM) against Bacillus cereus; 9.37 µg/mL (≈ 24.9 µM) in the assay with Pseudomonas aeruginosa; 18.8 µg/mL (≈ 49.9 µM) with Bacillus spizizenii; 9.37 µg/mL (≈ 24.9 µM) against Microsporum canis. Further, the MIC against Proteus vulgaris is 18.8 µg/mL (≈ 49.9 µM); with Salmonella typhi it was 9.37 µg/mL (≈ 24.9 µM); with Rhizoctonia solani, 4.68 µg/mL (≈ 12.5 µM); against Staphylococcus aureus, 18.8 µg/mL (≈ 49.9 µM); against Staphylococcus hominis, 9.37 µg/mL (≈ 24.9 µM); against Aspergillus awamori it was 9.37 µg/mL (≈ 24.9 µM).
